From PubChem BioAssay (NCI)
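Following 48 hours of exposure in 96-well plates, responses at five concentrations were used to interpolate endpoints linearly. TGI denotes the concentration required for complete inhibition of growth.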

Legend:
Experiment in all cases: NCI tumour cell line growth inhibition, 48 h
HCC-2998 colon = tested on: HCC-2998 colon
KM12 colon = tested on: KM12 colon
OVCAR-3 ovarian = tested on: OVCAR-3 ovarian
SW-620 colon = tested on: SW-620 colon
K-562 leukemia = tested on: K-562 leukemia
SK-MEL-28 melanoma = tested on: SK-MEL-28 melanoma
OVCAR-4 ovarian = tested on: OVCAR-4 ovarian
UACC-62 melanoma = tested on: UACC-62 melanoma
SNB-75 CNS = tested on: SNB-75 CNS
CCRF-CEM leukemia = tested on: CCRF-CEM leukemia
SK-OV-3 ovarian = tested on: SK-OV-3 ovarian
DU-145 prostate = tested on: DU-145 prostate
MOLT-4 leukemia = tested on: MOLT-4 leukemia

Compound | TGI (HCC-2998 colon) [µM] | TGI (KM12 colon) [µM] | TGI (OVCAR-3 ovarian) [µM] | TGI (SW-620 colon) [µM] | TGI (K-562 leukemia) [µM] | TGI (SK-MEL-28 melanoma) [µM] | TGI (OVCAR-4 ovarian) [µM] | TGI (UACC-62 melanoma) [µM] | TGI (SNB-75 CNS) [µM] | TGI (CCRF-CEM leukemia) [µM] | TGI (SK-OV-3 ovarian) [µM] | TGI (DU-145 prostate) [µM] | TGI (MOLT-4 leukemia) [µM]
c1ccc(N/N=C2\CC(c3ccccc3)Oc3ccccc32)cc1 (stereo not drawn) | > 100 | > 100 | > 100 | > 100 | > 100 | > 100 | > 100 | > 100 | 75.2 | > 100 | > 100 | > 100 | > 100
CC12CN(CC[N+](C)(C)C)CC1(C)C1CCC2O1 (stereo not drawn) | > 100 | > 100 | > 100 | > 100 | > 100 | > 100 | > 100 | > 100 | > 100 | > 100 | > 100 | > 100 | > 100
COC1Cc2c(C)c(OC(C)=O)c3cccnc3c2O1 (stereo not drawn) | > 100 | > 100 | 70.5 | 27.9 | 86 | 53 | 30.1 | 29 | 31.7 | 34.1 | > 100 | 31 | 43.1
CC(C)=CCNc1ncnc2c1ncn2CCC(=O)OC(C)(C)C | > 100 | > 100 | > 100 | > 100 | > 100 | > 100 | 40.4 | > 100 | > 100 | > 100 | > 100 | > 100 | > 100
Cc1c(O)c(OC2OC(CO)C(O)C(O)C2O)cc2c1CC[C@@H]1C2(C)C(=O)C[C@]2(C)[C@@H]([C@@](C)(O)C(O)/C=C/C(C)(C)O)[C@H](O)C[C@@]12C (stereo partly drawn) | > 100 | > 100 | > 100 | > 100 | > 100 | > 100 | > 100 | > 100 | > 100 | > 100 | > 100 | > 100 | > 100
CC1=CC(C)C(C)N(CCNC(=O)Nc2ccccc2)c2ccccc21 (stereo not drawn) | 61.1 | 57.9 | 51.2 | 83.6 | > 100 | > 100 | > 100 | 49.4 | 82.4 | 62.8 | 65.1 | > 100 | 64.4
